Data: patent publication US20210052537A1, “COLITIS AMELIORATING AGENT” (ASTA PHARMACEUTICALS, CO., LTD., priority 2018, published 2021)
“And” between values parts separate entries of the source, which are not always exact repeats. Identical values can stand only once.

Columns and labels:
DSS-induced colitis = DSS-induced colitis mouse model (experimental ulcerative colitis); format: in vivo; conditions: for Fecal scoring average value: score 0-3
Experimental: In this Example, mouse models to which dextran sulfate sodium salt (DSS) is used will be described as colitis models. When DSS is administered by being mixed in drinking water of the mouse, an experimental ulcerative colitis model similar to human ulcerative colitis in terms of symptoms such as suppression of body weight increase, blood in stools, and anemia and formation of colon erosion and further lacking intestinal lesion was build (Non-Patent Literature 3). A suppression effect of Compound X on colitis in such a model as the representative colitis model was examined. For the evaluation items, recovery from diarrhea and body weight loss by colitis, and the length and weight of the colon were examined as changes in colon properties, which are widely known to occur by DSS-induced colitis.
For treatment, C57BL/6J, male mice were purchased from CHARLES RIVER LABORATORIES JAPAN, INC. in accordance with previous literature (Non-Patent Literature 2) and 5-week old mice with no abnormal general conditions during quarantine and acclimation period were used for the experiment. After acclimation, the animals were divided in such a way as to be 1 mouse per cage. DSS used in the experiment having a molecular weight of from 36,000 to 50,000 Da was purchased from MP Bio Japan. DSS was added to tap water in such a way as to be 3% and suspended for causing colitis. The suspension was prepared once every 3 days and freely provided to each of the mice as water supply. A solution from which DSS was removed was provided as water supply to a non-pathological control group.
After group division, each of the test substances of Table 1 was suspended in a solution of 0.5% sodium carboxymethyl cellulose (hereinafter, CMC, Nacalai Tesque Inc.) in such a way as to be each treatment of Table 1 and orally administered once daily. […] These control groups, Groups 1 and 2, were orally administered, as the test substance, with the 0.5% CMC solution used as the medium.
Drinking water after the group division was typical water for drinking.
The test started with 6 mice in Group No. 1 and 10 mice each in Group Nos. 2 to 6.
Body weights were measured on the DSS administration starting day (day −5), DSS administration last day (day 0), on day 3, day 5, day 8, and day 10 of test substance administration.
The therapeutic effect was evaluated by observing changes in blood in stools caused by enteritis as the body weight recovery alone can be considered that the body weight increase might have been promoted simply by the growth. Mice feces were observed on the DSS administration starting day (day-5), DSS administration last day (day 0), on day 3, day 5, day 8, and day 10 of test substance administration and scored in accordance with the criteria of Table 2.
(§1) For evaluating the therapeutic effect of Compound X, the length and weight of the colon were measured. The mice were euthanized under anesthesia on day 10 of test substance administration and dissected to remove the colon. The removed colon was quickly measured for a length in a relaxed state. Subsequently, feces in the intestinal tract were removed and sufficiently washed with phosphate buffered saline (Wako Pure Chemical Industries, Ltd.) and measured for a wet weight.

Oxa-induced colitis = assay: Oxazolone (Oxa)-induced colitis mouse model; format: in vivo; conditions: for Colon length compared with Vehicle group / Colon wet weight compared with Vehicle group: Group Nos. 3 to 6 of Table 7, in words; for Colon length / Colon weight (wet weight per length): 6 days, day 7, mean ± SD
Text: In this Example, mouse models to which oxazolone (4-ethoxymethylene-2-phenyl-2-oxazolin-5-on, hereinafter, Oxa) is used will be described as colitis models. When Oxa was first applied to skin, subsequently administered enterally after a certain period of time, an experimental ulcerative colitis model similar to human ulcerative colitis in terms of not only symptoms such as suppression of body weight increase, blood in stools, and anemia and formation of colon erosion but also immune cells was built (Non-Patent Literature 4). A suppression effect of Compound X on colitis in such a model as the test model showing pathological conditions more similar to human ulcerative colitis was examined. For the examination items, the length and weight of the colon were examined as changes in colon properties are widely known to occur also in this model.
For treatment, Balb/c, male mice were purchased from CHARLES RIVER LABORATORIES JAPAN, INC. in accordance with previous literature (Non-Patent Literature 5) and 8-week old mice with no abnormal general conditions during quarantine and acclimation period were used for the experiment. After acclimation, the animals were divided in such a way as to be 1 mouse per cage. Oxa used in the experiment was purchased from Sigma.
Fur at back of the neck was shaved in an area of 1.5×1.5 cm under anesthesia, and 150 μL (a 100% ethanol solution) of 3% (wt/vol) Oxa was added using a pipette and applied between the shoulders to sensitize (Day 1). The mice were kept under such a typical breeding environment, fasted for 16 hours from Day 7 (water supply was continued), and subsequently on Day 8 100 μL of a solution of 1% (wt/vol) Oxa in 50% ethanol was transanally administered into the rectum (3.5 cm from the anus) using a catheter under anesthesia. Hereinafter, the above treatment is described as Oxa treatment. After treatment, typical feeding breeding was carried out.
Starting on the day following intrarectal administration of Oxa, test substances were orally administered (once daily, for 6 days). 5-Aminosalicylic acid (hereinafter 5-ASA, Tokyo Chemical Industry, Co., Ltd.) and prednisolone (hereinafter, PSL, Sigma), which are anti-inflammatory agents used for treating ulcerative colitis, were used as positive controls for the test. After group division, each of the test substances of Table 6 was suspended in a solution of 0.5% sodium carboxymethyl cellulose (hereinafter, CMC, Nacalai Tesque Inc.) in such a way as to be each treatment of Table 6 and orally administered once daily. […] These control groups, Groups 1 and 2, were orally administered, as the test substance, with the 0.5% CMC solution which was used as the medium.
The test started with 6 mice in Group No. 1 and 9 mice each in Group Nos. 2 to 6. After the treatment started, death of animals in Group Nos. 2 to 6 due to the cause considered enteritis from Oxa treatment was observed and thus 6 mice in Group Nos. 1 and 3, and 5 mice in Group Nos. 2 and 6, and 7 mice in Group Nos. 4 and 5 were finally used for analysis.
as §1, with “It is generally acknowledged as a known fact that Oxa treatment causes colon tissue changes such as the length of colon is shortened while the weight increases. For” for “For”, “7” for “10”, “Oxa treatment” for “test substance administration”

[1] = DSS + 50 mg/kg/day oral, day 3, mean ± SD
[2] = DSS + 50 mg/kg/day oral, day 5, mean ± SD
[3] = Oxa treatment + 50 mg/kg/day oral, 50 mg/kg/day
[4] = Oxa treatment + 5 mg/kg/day oral, 5 mg/kg/day

| SMILES | Body weight recovery compared with the DSS administration only (DSS-induced colitis; 50 mg/kg/day oral, in words) | Time-dependent changes in blood feces score versus DSS administration group (DSS-induced colitis; 50 mg/kg/day oral, in words) | Fecal scoring average value (DSS-induced colitis; DSS + 50 mg/kg/day oral, day 0 (DSS last day), mean ± SD) | Body weight (DSS-induced colitis; [1]) [g] | Fecal scoring average value (DSS-induced colitis; [1]) | Body weight (DSS-induced colitis; [2]) [g] | Fecal scoring average value (DSS-induced colitis; [2]) | Fecal scoring average value (DSS-induced colitis; DSS + 50 mg/kg/day oral, day 8, mean ± SD) | Colon length (DSS-induced colitis; DSS + 50 mg/kg/day oral, day 10, mean ± SD, 50 mg/kg/day) | Fecal scoring average value (DSS-induced colitis; DSS + 50 mg/kg/day oral, day 10, mean ± SD) | Fecal scoring average value (DSS-induced colitis; DSS + 50 mg/kg/day oral, day −5 (before test substance), mean ± SD) | Colon length compared with DSS group (DSS-induced colitis; Group Nos. 3 to 5 (1, 10, 100 mg/kg/day) and Group No. 6 (50 mg/kg/day), in words) | Colon wet weight compared with DSS group (DSS-induced colitis; all treated groups of Table 5, in words) | Colon length compared with Vehicle group (Oxa-induced colitis) | Colon wet weight compared with Vehicle group (Oxa-induced colitis) | Colon length (Oxa-induced colitis; [3]) | Colon weight (wet weight per length) (Oxa-induced colitis; [3]) | Colon length (Oxa-induced colitis; [4]) | Colon weight (wet weight per length) (Oxa-induced colitis; [4]) |
| --- | --- | --- | --- | --- | --- | --- | --- | --- | --- | --- | --- | --- | --- | --- | --- | --- | --- | --- | --- |
| Nc1ccc(O)c(C(=O)O)c1 [Compound 5-ASA, 5-Aminosalicylic acid, reference compound] | significant body weight recovery | did not have a difference | 1.0 ± 0.0 | 15.5 ± 1.0 | 1.5 ± 0.5 | 16.4 ± 1.7 | 1.8 ± 1.0 | 0.0 ± 0.0 | 6.54 cm and 6.54 ± 0.29 cm | 0.0 ± 0.0 | 0.0 ± 0.0 | longer length of the colon than DSS group | suppressed weight increases compared with DSS group | longer length of the colon than Vehicle group | suppressed weight increases compared with Vehicle group | 7.41 cm and 7.41 ± 0.37 cm | 4.12 mg/mm and 4.12 ± 0.56 mg/mm |  |  |
| C[C@]12C=CC(=O)C=C1CC[C@@H]1[C@@H]2[C@@H](O)C[C@@]2(C)[C@H]1CC[C@]2(O)C(=O)CO [PSL, prednisolone] |  |  |  |  |  |  |  |  |  |  |  |  |  | longer length of the colon than Vehicle group | suppressed weight increases compared with Vehicle group |  |  | 8.20 cm and 8.20 ± 0.52 cm | 3.37 mg/mm and 3.37 ± 0.36 mg/mm |
